Tests used:
[1] = tested on: hypothermia, trembling and peripheral cholinergic symptoms brought about by oxotremorine; assay: Interaction with oxotremorine; format: in vivo, mice; details: for effect towards oxotremorine: in words
Protocol: Mice (6 per dose) are given an intraperitoneal injection of 0.5 mg/kg of oxotremorine 30 minutes after the administration of CRL 40,028.

mice [2] = assay: Toxicity, intraperitoneal administration, mice; format: in vivo; details: intraperitoneal administration
[3] = tested on: stereotype behaviour induced by amphetamine; assay: Interaction with amphetamine; format: in vivo, rats; details: for duration of the stereotypies brought about by amphetamine: rat, in vivo; for boosting of stereotypies produced by amphetamine-type compounds: in words
Protocol: Amphetamine (2 mg/kg, given intraperitoneally) is injected 30 minutes after the administration of CRL 40,028 (6 rats/dose).

[4] = tested on: hypothermia and ptosis produced by reserpine; assay: Interaction with reserpine; format: in vivo, mice
Protocol: Batches of 6 mice are given an intraperitoneal injection of reserpine (2.5 mg/kg) 4 hours before the administration of CRL 40,028.

spontaneous motility = assay: Spontaneous motility (actimetry); format: in vivo, mice; details: mice
Protocol: CRL 40,028 increases the motor activity of the animals from a dose of 16 mg/kg onwards. As this effect is representative of the activity of CRL 40,028, attempts have been made to obtain its kinetics more precisely. […]

passes which entail pain [5] = details: mentioned for comparison; cited from earlier work
[6] = at doses close to the toxic dose; mentioned for comparison; cited from earlier work
mice [7] = assay: General behaviour, mice; format: in vivo; details: mice
central nervous system = assay: Pharmacological tests: action on the central nervous system, overall profile; format: in vivo; details: for action on the central nervous system: in words
Protocol: The results of the pharmacological tests which were carried out have been summarised below.

[8] = General behaviour / psychopharmacological spectrum (species not stated); format: in vivo; details: for mydriatic effect: in words
residual motility = assay: Residual motility; format: in vivo, mice
[9] = tested on: convulsive effects of the electric shock; assay: Electric shock; format: in vivo, mice
Protocol: (§1) The test is carried out on batches of 20 mice, 30 minutes after the administration of CRL 40,028.

groups of mice = assay: Group toxicity; details: Table IV, graded symbols
passes which entail pain [10] = assay: Four plate test; format: in vivo, mice; details: in words
Protocol: as §1

rats = assay: General behaviour, rats; format: in vivo
[11] = at medium doses, very moderate intensity

For `Cl.NC(CC[S+]([O-])C(c1ccccc1)c1ccccc1)=NO` (stereo not shown) [CRL 40,261, 3-(Benzhydrylsulphinyl)-propionamidoxime hydrochloride], the effect towards oxotremorine [1] was “moderate effect towards oxotremorine”, the LD-O (mice [2]) was “greater than 256 mg/kg” and the “duration of the stereotypies brought about by amphetamine” value [3] was “an increase in the duration of the stereotypies”. For the same molecule, the “hypothermia due to reserpine” value ([4]; in words) was “an increase in the hypothermia due to reserpine”, the “palpebral ptosis induced by reserpine” value ([4]; in words) was “without alteration of the palpebral ptosis” and the spontaneous motility (spontaneous motility; 2 mg/kg, 8 mg/kg and 32 mg/kg) was “an increase in the spontaneous motility”.

For `CNCCC=C1c2ccccc2CCc2ccccc21` [nortriptyline], the “effect in the four plate test (comparison drug)” value (from here on “effect … (comparison drug)”) (passes which entail pain [5]) is given as “not” and the “sedation (comparison drug)” value [6] is given as “a sedation at doses close to the toxic dose”.

With `Cl.NC(C[S+]([O-])C(c1ccccc1)c1ccccc1)=NO` (stereo not shown) [CRL 40,048, Benzhydrylsulphinylacetamidoxime hydrochloride] the “hyper-reactivity to the touch” value (mice [7]) was “hyper-reactivity to the touch”, the effect towards oxotremorine [1] was “antagonist action on oxotremorine” and the “action on the central nervous system” value (central nervous system) was “acts only on the central nervous system”. For the same molecule, the solubility (Solubility in water) was 100 mg/mL, the “boosting of stereotypies produced by amphetamine-type compounds” value [3] was “boosts stereotypies produced by amphetamine-type compounds” and the mydriatic effect [8] was “absence of a mydriatic effect”.

With `Cl.[O-][S+](CCN1CCCCC1)C(c1ccccc1)c1ccccc1` (stereo not shown) [CRL 40,222, N-[2-(Benzhydrylsulphinyl)-ethyl]-piperidine hydrochloride] the effect towards oxotremorine [1] was “a moderate action towards oxotremorine”, the residual motility (residual motility; mice, 8 mg/kg) was “a stimulation of the residual motility” and the “action on the central nervous system” value (central nervous system) was “acts on the central nervous system”. For the same molecule, the LD-O (mice [2]) was “greater than 128 mg/kg”, the “duration of the stereotypies brought about by amphetamine” value [3] was “an increase in the duration of the stereotypies” and the anti-reserpine effect ([4]; in words) was “absence of an anti-reserpine effect”. The spontaneous motility (spontaneous motility; only at a low dose of 1 mg/kg) was “an increase in the spontaneous motility”.

In the case of `Cl.NC(CCC[S+]([O-])C(c1ccccc1)c1ccccc1)=NO` (stereo not shown) [CRL 40,277, 4-(Benzhydrylsulphinyl)-butyramidoxime hydrochloride], the “hypothermic effects of oxotremorine” value ([1]; at high doses) is reported as “aggravation of the hypothermic effects”, the residual hypermotility (residual motility; [11]) is reported as “inconstant residual hypermotility” and the “action on the central nervous system” value (central nervous system) is reported as “acts on the central nervous system”. For the same molecule, the LD-O (mice [2]) was “greater than 512 mg/kg”, the “boosting of the effect of amphetamine” value [3, 11] was “boosting of the effect of amphetamine” and the “lethal effects of the electric shock” value ([9]; at high doses) was “an aggravation of the lethal effects of the electric shock”. For the same molecule, the hypomotility ([8]; at high doses) was “hypomotility”, the hypothermia ([8]; at high doses) was “hypothermia” and the hyper-reactivity [8, 11] was “hyper-reactivity”. For the same molecule, the “hypothermic effects of reserpine” value ([4]; at high doses) was “aggravation of the hypothermic effects of reserpine”.

For `CN(C)CCC=C1c2ccccc2CCc2ccccc21` [amitriptyline], the “effect … (comparison drug)” value (passes which entail pain [5]) is listed as “a certain effect in the four plate test” and the “sedation (comparison drug)” value [6] is listed as “not”.

In the case of `CN(C)CCCN1c2ccccc2CCc2ccccc21` [imipramine], the “effect … (comparison drug)” value (passes which entail pain [5]) is listed as “a certain effect in the four plate test”.

In the case of `Cn1c(=O)c2c(ncn2C)n(C)c1=O` [Caffeine, reference compound], the “Anti-oxotremorine action (peripheral)” value ([1]; Table IV, graded symbols) is reported as 0, the “Anti-oxotremorine action (trembling)” value ([1]; Table IV, graded symbols) is reported as 0 and the Group toxicity (groups of mice) is reported as 0. For the same molecule, the “Anti-reserpine action (ptosis)” value ([4]; Table IV, graded symbols) was 0.

In the case of `Cl.[O-][S+](CCN1CCOCC1)C(c1ccccc1)c1ccccc1` (stereo not shown) [CRL 40,221, N-[2-(Benzhydrylsulphinyl)-ethyl]-morpholine hydrochloride], the effect towards oxotremorine [1] is reported as “an anti-oxotremorine effect”, the “motor activity in mice accustomed to their chamber” value (residual motility; mice) is reported as “a resumption of motor activity” and the “effect in the four plate test” value (passes which entail pain [10]) is reported as “a certain effect in the four plate test”. For the same molecule, the psychopharmacological spectrum (central nervous system; comparison with tricyclic anti-depressants) was “close to that of tricyclic anti-depressants”, the LD-O (mice [2]) was “greater than 512 mg/kg” and the “boosting of stereotypies produced by amphetamine-type compounds” value [3] was “a (metabolic) boosting of the stereotypies”. For the same molecule, the “protection against convulsions produced by electric shock” value ([9]; in words) was “a protection against convulsions”, the sedation ([8]; at doses close to the toxic dose) was “a sedation at doses close to the toxic dose” and the hypothermia ([8]; at high doses) was “hypothermia at high doses”. The mydriatic effect [8] was “a considerable mydriasis” and the anti-reserpine effect ([4]; in words) was “an anti-reserpine effect”.

In the case of `O=C(CCC[S+]([O-])C(c1ccccc1)c1ccccc1)NO` (stereo not shown) [CRL 40,278, 4-(Benzhydrylsulphinyl)-butyrohydroxamic acid], the “action on the central nervous system” value (central nervous system) is reported as “acts on the central nervous system” and the LD-O (mice [2]) is reported as “greater than 1,024 mg/kg”.

With `O=C(CC[S+]([O-])C(c1ccccc1)c1ccccc1)NO` (stereo not shown) [CRL 40,260, 3-(Benzhydrylsulphinyl)-propionohydroxamic acid] the hyper-reactivity (mice [7]) was “a hyper-reactivity”, the “sedation, with hypomotility” value (mice [7]) was “a sedation, with hypomotility” and the LD-O (mice [2]) was “greater than 1,024 mg/kg”. For the same molecule, the toxicity in words (mice [2]) was “low toxicity”, the hyper-reactivity (rats) was “a hyper-reactivity” and the “sedation, with hypomotility” value (rats) was “a sedation, with hypomotility”. The spontaneous motility (spontaneous motility) was “a reduction in the spontaneous motility”.

Reference: US4127722A, “Benzhydrylsulphinyl derivatives” (Laboratoire L. Lafon, priority 1975, dated 1978)
